Active and inactive are the calls of the source. Cut-off read from the data, not from the text of the source, for most assays here: actives have a measured EC50 and inactives only a lower limit.
How the values were obtained:
[1] = molecular target: Luciferin 4-monooxygenase (Photinus pyralis, UniProt P08659); experiment: firefly luciferase enzyme inhibitors, dose response, biochemical, luminescence (AID 1891)
[2] = Luminescence Cell-Based Dose Confirmation HTS to Identify Inhibitors of Platelet Dense Granule Release. [Related pubchem assays: 1663 (Primary HTS), 1678 (Summary of Project)]; format: functional
[3] = molecular target: T1, Histone-lysine N-methyltransferase NSD2 (Homo sapiens, UniProt O96028); format: biochemical
T1 sequence (O96028 whole entry): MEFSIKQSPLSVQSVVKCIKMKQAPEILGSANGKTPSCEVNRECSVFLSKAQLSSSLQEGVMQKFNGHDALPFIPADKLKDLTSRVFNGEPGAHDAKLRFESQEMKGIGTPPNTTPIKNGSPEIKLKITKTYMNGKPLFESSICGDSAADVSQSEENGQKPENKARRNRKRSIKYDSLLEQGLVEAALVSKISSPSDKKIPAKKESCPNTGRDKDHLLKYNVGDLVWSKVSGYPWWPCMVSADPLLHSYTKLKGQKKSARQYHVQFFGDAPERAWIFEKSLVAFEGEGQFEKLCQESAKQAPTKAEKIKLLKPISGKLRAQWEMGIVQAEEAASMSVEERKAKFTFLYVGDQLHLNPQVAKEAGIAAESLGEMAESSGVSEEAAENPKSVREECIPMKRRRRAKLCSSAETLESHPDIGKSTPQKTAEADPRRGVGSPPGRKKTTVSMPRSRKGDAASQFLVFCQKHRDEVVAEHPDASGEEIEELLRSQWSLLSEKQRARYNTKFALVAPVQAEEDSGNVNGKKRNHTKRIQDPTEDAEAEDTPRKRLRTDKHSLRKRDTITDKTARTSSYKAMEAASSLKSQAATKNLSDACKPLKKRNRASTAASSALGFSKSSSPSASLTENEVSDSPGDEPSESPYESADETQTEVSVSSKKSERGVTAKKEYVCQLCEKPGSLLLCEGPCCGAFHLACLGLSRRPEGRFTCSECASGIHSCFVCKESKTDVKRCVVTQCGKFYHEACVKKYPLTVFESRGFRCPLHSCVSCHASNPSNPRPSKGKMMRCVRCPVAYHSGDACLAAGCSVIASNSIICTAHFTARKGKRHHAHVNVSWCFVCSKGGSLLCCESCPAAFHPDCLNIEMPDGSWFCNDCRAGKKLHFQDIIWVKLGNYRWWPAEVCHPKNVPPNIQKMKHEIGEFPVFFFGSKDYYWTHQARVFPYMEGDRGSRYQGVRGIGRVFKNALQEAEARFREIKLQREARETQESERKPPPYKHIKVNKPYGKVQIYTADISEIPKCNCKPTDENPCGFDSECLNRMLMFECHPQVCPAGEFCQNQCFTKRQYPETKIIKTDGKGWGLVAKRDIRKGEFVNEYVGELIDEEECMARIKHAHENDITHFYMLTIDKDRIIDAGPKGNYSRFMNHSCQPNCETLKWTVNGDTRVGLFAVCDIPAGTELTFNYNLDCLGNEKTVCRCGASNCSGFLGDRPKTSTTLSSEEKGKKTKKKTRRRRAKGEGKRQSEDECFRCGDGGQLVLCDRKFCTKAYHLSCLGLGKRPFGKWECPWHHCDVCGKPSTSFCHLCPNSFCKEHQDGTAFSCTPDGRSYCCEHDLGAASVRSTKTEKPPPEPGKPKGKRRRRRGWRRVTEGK

[4] = P. falciparum Dd2 growth inhibitors, dose response, SYBR Green, cherry-picked samples (AID 1159567); format: functional, cell-based
[5] = HepG2 cell cytotoxicity, dose response, cytotoxicity control, cherry-picked samples (AID 1159577); format: functional, cell-based
[6] = test system: BJ; experiment: cytotoxicity toward BJ-TERT fibroblasts, dose response, cell-based, RAS-independent, luminescence (AID 1933); format: functional; conditions: Homo sapiens
[7] = test system: BJ; experiment: cells; format: functional, cell-based; conditions: Homo sapiens
[8] = test system: BJ; experiment: cytotoxicity toward BJ-TERT-LT-ST fibroblasts, dose response, cell-based, RAS-independent, luminescence (AID 1935); format: functional; conditions: Homo sapiens;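 note: BJ fibroblasts immortalized with TERT plus LT and ST oncogenes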
[9] = cytotoxicity toward DRD oncogenic fibroblasts, dose response, cell-based, non-viral oncogenic, luminescence (AID 1934); format: functional; conditions: Homo sapiens
[10] = Luminescence Cell-Based Dose Retest to Confirm Inhibitors of Cancer Stem Cells. [Related pubchem assays (depositor defined):AID2717, AID2721]; format: functional; conditions: Homo sapiens
[11] = molecular target: Nonstructural protein 1 (Influenza A virus, UniProt Q194T2); format: functional, Influenza A virus (A/California/07/2009(H1N1))
[12] = test system: BJ; experiment: cytotoxicity toward Ras-transformed BJeLR fibroblasts, dose response, cell-based, alamar blue fluorescence, cherrypicked samples (AID 2631); format: functional; conditions: Homo sapiens;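 note: confirmatory dose-response assay in RAS-dependent BJ fibroblasts engineered with TERT, LT and ST, with cytotoxicity read by fluorescence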

Sequence of Luciferin 4-monooxygenase (P08659 whole entry): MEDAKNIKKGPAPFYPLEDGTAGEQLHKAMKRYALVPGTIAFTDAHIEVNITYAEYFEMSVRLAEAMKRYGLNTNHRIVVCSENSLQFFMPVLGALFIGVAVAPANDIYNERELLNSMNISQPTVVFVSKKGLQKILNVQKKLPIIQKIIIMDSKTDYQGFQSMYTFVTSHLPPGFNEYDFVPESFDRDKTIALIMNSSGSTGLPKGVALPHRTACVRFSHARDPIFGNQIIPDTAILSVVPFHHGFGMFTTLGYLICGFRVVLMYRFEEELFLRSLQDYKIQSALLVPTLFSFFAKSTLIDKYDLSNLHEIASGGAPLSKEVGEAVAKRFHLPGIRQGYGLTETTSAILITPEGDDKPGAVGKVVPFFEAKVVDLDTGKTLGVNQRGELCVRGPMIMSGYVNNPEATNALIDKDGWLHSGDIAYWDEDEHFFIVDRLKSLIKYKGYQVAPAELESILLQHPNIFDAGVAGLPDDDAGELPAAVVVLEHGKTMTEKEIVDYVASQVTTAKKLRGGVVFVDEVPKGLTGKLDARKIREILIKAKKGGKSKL
Sequence of Nonstructural protein 1 (Q194T2 whole entry): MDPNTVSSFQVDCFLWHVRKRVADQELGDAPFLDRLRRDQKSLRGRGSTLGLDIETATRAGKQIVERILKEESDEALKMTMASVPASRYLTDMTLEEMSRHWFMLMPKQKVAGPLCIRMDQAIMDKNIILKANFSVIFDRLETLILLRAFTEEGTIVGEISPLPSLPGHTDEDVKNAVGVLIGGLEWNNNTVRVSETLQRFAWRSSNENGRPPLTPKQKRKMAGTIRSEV

Compound	EC50 [1]	EC50 [2]	AC50 [4]	AC50 [5]	other results
CN(C)CCN(Cc1ccccc1)S(=O)(=O)c1ccc(-c2ccc(O)nn2)s1	> 112 µM (not active)	6.77 µM (active)			
Cc1cc(C=O)c(C)n1-c1ccc(N2CCCCC2)c([N+](=O)[O-])c1					AC50 [3]: > 20 µM (inactive)
C[C@@H]1CN([C@@H](C)CO)C(=O)c2c(c3ccccc3n2C)-c2ccccc2CO[C@@H]1CN(C)Cc1cccc(C(F)(F)F)c1			1.64 µM (active)	14 µM (active)	
CCN(CC)CCCNC(=O)c1cc(-c2ccccc2)c(N2CCCCC2)s1					EC50 [6]: 9.67 µM (active); EC50 [7]: 28.8 µM (active); EC50 [8]: 12.8 µM (inconclusive); EC50 [9]: 10.1 µM (active); AC50 [10]: 3.79 µM (active); IC50 [11]: 88.3 µM (active); EC50 [12]: > 133 µM (inactive)
CC(NS(C)(=O)=O)C(c1cccs1)N1CCN(Cc2ccccc2)CC1 (stereo unspecified)	> 112 µM (not active)	> 112 µM (not active)			
COc1ccc(S(=O)(=O)N2CCCCN3[C@@H](CO)[C@@H](c4ccc(C#CCC(C)C)cc4)[C@@H]3C2)cc1			1.63 µM (active)	18.9 µM (active)	

Source: ChEMBL document CHEMBL1201862, “PubChem BioAssay data set” (2004)
